Source: US5120831A, “Metal-peptide compositions” (ProCyte Corporation, priority 1989, dated 1992)
Entries after “also recorded” stand apart in the source; their conditions may differ.

Legend:
[1] = tested on: hair growth; experiment: Stimulation of hair growth in shaved mice by subdermal/intradermal injection; assay type: in vivo; conditions: for significant acceleration of hair growth within, following the injection: Example 12: 500 and 1000 micrograms per mouse; for significant acceleration of hair growth within, following injection: injected once; for hair growth (photograph of injected mice): visual, injection sites versus surrounding shaved areas; for % POS. RESPONSE: hair growth at both injection sites = positive
Excerpt: Increasing doses of glycyl-L-histidyl-L-lysyl-L-valyl-L-phenylalanyl-L-valine:copper(II) in aqueous solution was infiltrated under the skin in two locations. Mice are examined daily for signs of hair growth in the shaved area and at the injection sites. […] Hair growth at both injection sites is considered a positive response.
Mice were shaved and injected in two locations with an aqueous solution of glycyl-L-histidyl-L-lysine octyl ester:metal ion (GHL octyl:metal ion) at a ratio of peptide to metal ion of 2:1. A dose of 500 micrograms was injected per mouse.
Hair growth at both injection sites is considered a positive response.
Mice were shaved and injected in two locations with an aqueous solution of L-lysyl-L-histidyl-glycine octyl ester:copper(II) (LHG Octyl:Cu) and L-lysyl-L-histidyl-glycyl-L-L-valyl-L-phenylalanyl-L-valine:Cu (LGHVFV:Cu) at a ratio of peptide to metal ion of 2:1, and at a dose of 500 and 1000 micrograms per mouse. Hair growth at both injection sites is considered a positive response.
Mice were shaved and injected intradermally in two locations with various doses of glycyl-L-(3-methyl)-histidyl-L-lysyl-glycyl-L-tryptophan:copper(II). […] Hair growth at both injection sites is considered a positive response.
Mice were shaved and injected once with glycyl-L-histidyl-L-lysine n-octyl ester:copper(II) at a dose of 500 micrograms per mouse.
A group of ten mice were shaved and injected once with glycyl-L-histidyl-L-lysine decyl ester:copper(II) at a dose of 500 micrograms per mouse.
A group of 10 mice were shaved and injected once with glycyl-L-histidyl-L-lysine palmityl ester:copper(II) at a dose of 500 micrograms per mose.

[2] = tested on: hair follicles and subcutaneous fat layer; experiment: Histological evaluation of skin biopsies through the area of accelerated hair growth; assay type: in vivo, mice; conditions: for hair follicles in histological sections / subcutaneous fat layer in histological sections: skin biopsy through the site of injection / area of accelerated hair growth
Excerpt: Moreover, the surrounding skin contains telogen state follicles resting in the dermal layer, and a gradation of effect is observed as you move closer to the injection site. […] FIG. 4 is a photograph which illustrates the histological section from a mouse injection with glycyl-L-histidyl-L-lysyl-L-valyl-L-phenylalanyl-L-valine:copper(II). The area of injection is on the right side of the photograph. A decrease in hair follicle density and the subcutaneous fat layer is observed at increasing distance from the injection site.
It is known that the thickness of this fat layer is directly associated with hair growth. This increase in subcutaneous fat is shown by taking a biopsy sample at day 21 through the area and sectioning for histology slides. […] The injected area is on the right with the adjacent uninjected area on the left of the photograph.
A group of ten mice were shaved and injected once with glycyl-L-histidyl-L-lysine decyl ester:copper(II) at a dose of 500 micrograms per mouse. […]

[3] = tested on: hair growth; experiment: Stimulation of hair growth in shaved mice by daily topical application; assay type: in vivo; conditions: treated daily; 1% (w/w) in Nonocynol-9 5% / Unibase Cream 94%; peptide to metal ion 2:1
Excerpt: Hair growth at the treated site is considered a positive response.

[4] = two locations, peptide to metal ion 2:1
[5] = dose 0.5 mg, two locations, peptide to metal ion 2:1
[6] = dose 1.0 mg, two locations, peptide to metal ion 2:1
[7] = Exp. 1, dose 500 mg, intradermally in two locations

For “L-lysyl-L-histidyl-glycine octyl ester:copper(II) [LHG-Octyl:Cu]”, the “significant acceleration of hair growth within, following the injection” value [1, 4] was 2-3 weeks, the “POSITIVE RESPONSE (No. Positive/Total No.)” value [1, 5] was 8/8 and the “POSITIVE RESPONSE, percent” value [1, 5] was 100%. The “POSITIVE RESPONSE (No. Positive/Total No.)” value [1, 6] was 5/5 and the “POSITIVE RESPONSE, percent” value [1, 6] was 100%.

“L-lysyl-L-histidyl-glycyl-L-valyl-L-phenylalanyl-L-valine:copper(II) [LHGVFV:Cu]” was tested, and the “significant acceleration of hair growth within, following the injection” value [1, 4] was 2-3 weeks, the “POSITIVE RESPONSE (No. Positive/Total No.)” value [1, 5] was 9/10 and the “POSITIVE RESPONSE, percent” value [1, 5] was 90%. The “POSITIVE RESPONSE (No. Positive/Total No.)” value [1, 6] was 5/5 and the “POSITIVE RESPONSE, percent” value [1, 6] was 100%.

In the case of “glycyl-L-(3-methyl)-histidyl-L-lysyl-glycyl-L-tryptophan:copper(II)”, the “hair growth noted within, following the injections” value ([1]; Example 14: various doses, intradermally in two locations) is reported as 2-3 weeks, the “POSITIVE RESPONSE (No. Positive/Total No.)” value [1, 7] is reported as 5/5 and the “POSITIVE RESPONSE, percent” value [1, 7] is reported as 100%. For the same substance, the “POSITIVE RESPONSE, percent” value ([1]; Exp. 2, dose 250 mg, intradermally in two locations) was 100% and the “POSITIVE RESPONSE (No. Positive/Total No.)” value ([1]; Exp. 2, intradermally in two locations) was 5/5.

In the case of “glycyl-L-histidyl-L-lysine decyl ester:copper(II)”, the “hair shaft units within the subcutaneous fat layer” value ([2]; biopsy of area of accelerated growth, 500 micrograms per mouse, injected once) is reported as “marked proliferation of hair shaft units; also recorded: marked proliferation of hair shafts”, the “hair follicles in histological sections” value [2] is reported as “increased hair growth, fat cell layer and increased hair follicle density” and the “significant acceleration of hair growth within, following injection” value (shortened to “significant acceleration … following injection”) ([1]; 500 micrograms per mouse) is reported as 2-3 weeks. For the same substance, the “hair growth (photograph of injected mice)” value [1] was “stimulated hair growth”.

For “glycyl-L-histidyl-L-lysine octyl ester:copper(II) [GHL Octyl:Cu(II)]”, the “increase in the subcutaneous fat layer in the skin near the injection site (measurements)” value ([2]; biopsy at day 21, 500 micrograms per mouse, injected once, versus adjacent uninjected area) was “approximately threefold increase”, the “number and size of the fat cells” value ([2]; biopsy at day 21, injected area versus adjacent uninjected area) was “obvious increase in both the number and size of the fat cells” and the “subcutaneous fat layer in histological sections” value ([2]; listed as glycyl-L-histidyl-L-lysine n-octyl ester:copper(II)) was “significant increase in the thickness of the subcutaneous fat layer”. The “POSITIVE RESPONSE (No. Positive/Total No.)” value ([1]; 500 micrograms per mouse, two locations, peptide to metal ion 2:1, hair growth at both sites = positive) was 4/4 and the “significant acceleration … following injection” value ([1]; 500 micrograms per mouse) was 2-3 weeks.

For “glycyl-L-histidyl-L-lysine palmityl ester:copper(II)”, the “hair follicles in histological sections” value [2] was “large number of developing hair follicles within the subcutaneous fat layer” and the “significant acceleration … following injection” value ([1]; 500 micrograms per mouse) was 2-3 weeks.

With “glycyl-L-histidyl-L-lysyl-L-valyl-L-phenylalanyl-L-valine:copper(II)” the “hair follicles in histological sections” value [2] was “anagen state follicles”, the “subcutaneous fat layer in histological sections” value [2] was “thickening of the fat layer” and the “diameter of circle of growth” value ([1]; 0.5 mg injection) was “approximately 0.5 cm”. For the same substance, the “% POS. RESPONSE” value ([1]; dose 0.10 mg/inj., injected under the skin in two locations) was 86%, the “% POS. RESPONSE” value ([1]; dose 0.25 mg/inj., two locations) was 89% and the “% POS. RESPONSE” value ([1]; dose 0.50 mg/inj., two locations) was 89%. The “% POS. RESPONSE” value ([1]; dose 1.00 mg/inj., two locations) was 95%, the “active hair growth takes place between” value ([1]; following injection) was 14 to 20 days and the “indications of hair growth seen within” value ([1]; following injection) was at most 10 days. For the same substance, the “maximum effect seen by” value ([1]; following injection) was at most 28 days, the “stimulated hair growth at and around the injection site by days” value ([1]; increasing doses, two locations, shaved on day 1) was 14 to 21 days and the “hair growth at 25 days from the date of injection (photograph)” value ([1]; single injection site, versus control mouse injected with saline) was “accelerated hair growth”. The “positive response, % of the mice injected” value ([1]; summary of series of experiments of Table 1, no response with saline) was 80-90%, the “hair growth (photograph of injected mice)” value [1] was “accelerated hair growth at two injection sites” and the “mice showing accelerated hair growth in the area of topical application (number)” value [3] was “Four of the five”. The “mice showing accelerated hair growth in the area of topical application (percent)” value [3] was 80%.
